Data: ChEMBL document CHEMBL6177981, “Bardoxolone Derivatives as Novel Pseudo-Natural Necroptosis Inhibitors by Destabilizing HSP90 Client Proteins” (J Med Chem, 2025)
Active and inactive are the calls of the source. The calls are words filed in the database; no cut-off is given here.

Columns and labels:
[1] = Acute toxicity in male C57BL/6J mouse assessed as hemorrhage in spleen at 2 g/Kg, IG measured after 72 hrs by H and E staining based analysis; type: tissue-based; settings: in vivo, po, 2000 mg/kg
[2] = Acute toxicity in male C57BL/6J mouse assessed as structural changes in liver at 2 g/Kg, IG measured after 72 hrs by H and E staining based analysis; type: tissue-based; settings: in vivo, po, 2000 mg/kg
[3] = tested on: EOL1; assay: Anti-necroptotic activity in TSZ-induced human EOL1 cells assessed as increase in cell viability at 2.5 to 20 uM preincubated with compound followed by Z-VAD-FMK, SM164 and TNFalpha addition and measured after 7 hrs by CellTiter-Lumi luminescent cell viability assay relative to control; type: functional; settings: dose 2.5-20 µM
[4] = tested on: Mus musculus; assay: (§1) Anti-necroptotic activity in TNFalpha/Z-VAD-FMK induced SIRS male C57BL/6J mouse model assessed as reduction in IL6 in heart at 5 to 10 mg/kg, po pre-administered with compound via gavage for 2 hrs followed by […] of Z-VAD-FMK stimulation for 15 mins with subsequent TNF-alpha stimulation for 1 hrs and re-current […] of Z-VAD-FMK stimulation and measured after 8 hrs post SIRS induction by ELISA; type: functional, organism-based; settings: dose 5-10 mg/kg, time 10.0 hrs
[5] = Inhibition of TSZ-mediated necrosome formation in human HT-29 cells at 10 uM preincubated with compound followed by Z-VAD-FMK, SM164 and TNFalpha stimulation and measured after 6 hrs by co-immunoprecipitation based Western blot analysis relative to control; type: functional
[6] = molecular target: Heat shock protein HSP90 (Homo sapiens) (UniProt P07900+P08238); assay: Inhibition of HSP90 in TSZ-induced human HT-29 cells assessed as reduction in EGFR protein level preincubated with compound followed by Z-VAD-FMK, SM164 and TNFalpha stimulation and measured after 6 hrs by Western blot analysis; type: cell-based; settings: dose 0.625-10 µM
[7] = tested on: Mus musculus; assay: as §1, with “IL-1beta” for “IL6”, “intestine” for “heart”; type: functional, organism-based; settings: dose 5-10 mg/kg, time 10.0 hrs
[8] = tested on: Mus musculus; assay: as §1, with “IL-1beta” for “IL6”, “lung” for “heart”; type: functional, organism-based; settings: dose 5-10 mg/kg, time 10.0 hrs
[9] = tested on: HeLa; assay: Inhibition of MLKL protein expression in RIPK3-deficient human HeLa cells at 0.75 to 6 uM incubated for 9 hrs by Western blot analysis; type: functional, cell-based; settings: dose 0.75-6 µM
[10] = Acute toxicity in male C57BL/6J mouse assessed as structural changes in spleen at 2 g/Kg, IG measured after 72 hrs by H and E staining based analysis; type: tissue-based; settings: in vivo, po, 2000 mg/kg
[11] = Tmax in Sprague-Dawley rat at 10 mg/kg, IG measured after 24 hrs by LC-MS/MS analysis; type: ADME, organism-based; settings: in vivo, po
[12] = Acute toxicity in male C57BL/6J mouse assessed as hemorrhage in kidney at 2 g/Kg, IG measured after 72 hrs by H and E staining based analysis; type: tissue-based; settings: in vivo, po, 2000 mg/kg
[13] = tested on: HT-29; assay: Downregulation of RIPK1 protein level in human HT-29 cells at 6 uM preincubated with NH4Cl for 2 hrs followed by compound addition and measured after 9 hrs by Western blot analysis; type: functional, cell-based
[14] = Acute toxicity in male C57BL/6J mouse assessed as effect on AST level at 2 g/Kg, IG measured after 72 hrs; settings: in vivo, po, 2000 mg/kg
[15] = molecular target: T1, Mixed lineage kinase domain-like protein (Homo sapiens) (UniProt Q8NB16); assay: Inhibition of MLKL phosphorylation at S358 residue in TSZ-induced human HT-29 cells at 10 uM preincubated with compound followed by Z-VAD-FMK, SM164 and TNFalpha stimulation and measured after 6 hrs by Western blot analysis; type: cell-based
T1 sequence (whole entry): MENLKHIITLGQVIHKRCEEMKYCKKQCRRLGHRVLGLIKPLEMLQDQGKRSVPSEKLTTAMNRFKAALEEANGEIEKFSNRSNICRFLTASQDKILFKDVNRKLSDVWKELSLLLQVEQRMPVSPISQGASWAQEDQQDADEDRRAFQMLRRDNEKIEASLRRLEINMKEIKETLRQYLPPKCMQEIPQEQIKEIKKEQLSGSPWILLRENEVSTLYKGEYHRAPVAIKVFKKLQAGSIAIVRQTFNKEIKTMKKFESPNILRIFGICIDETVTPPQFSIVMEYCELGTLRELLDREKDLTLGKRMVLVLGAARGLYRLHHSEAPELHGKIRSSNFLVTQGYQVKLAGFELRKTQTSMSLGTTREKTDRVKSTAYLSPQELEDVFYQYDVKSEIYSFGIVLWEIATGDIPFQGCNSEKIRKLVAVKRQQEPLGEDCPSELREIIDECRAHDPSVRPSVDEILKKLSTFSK

[16] = tested on: HeLa; assay: Inhibition of RIPK1 protein expression in RIPK3-deficient human HeLa cells at 6 uM preincubated with MG132 for 2 hrs followed by compound addition and measured after 9 hrs by Western blot analysis; type: functional, cell-based
[17] = Acute toxicity in male C57BL/6J mouse assessed as inflammatory cell infiltration in stomach at 2 g/Kg, IG measured after 72 hrs by H and E staining based analysis; type: tissue-based; settings: in vivo, po, 2000 mg/kg
[18] = molecular target: Receptor-interacting serine/threonine-protein kinase 3 (Homo sapiens) (UniProt Q9Y572); assay: Inhibition of RIPK3 phosphorylation at S227 residue in TSZ-induced human HT-29 cells at 10 uM preincubated with compound followed by Z-VAD-FMK, SM164 and TNFalpha stimulation and measured after 6 hrs by Western blot analysis; type: cell-based
[19] = tested on: RAW264.7; assay: Anti-necroptotic activity in LZ-induced mouse RAW264.7 cells assessed as increase in cell viability at 5 to 10 uM preincubated with compound followed by LPS and Z-VAD-FMK stimulation and measured after 16 hrs by CellTiter-Lumi luminescent cell viability assay; type: functional, cell-based; settings: dose 5-10 µM
[20] = tested on: L929; assay: Anti-necroptotic activity in TZ-induced mouse L929 cells assessed as increase in cell viability preincubated with Z-VAD-FMK followed by mTNFalpha stimulation for 4 hrs and measured after compound addition by CellTiter-Lumi luminescent cell viability assay; type: functional, cell-based
[21] = Acute toxicity in male C57BL/6J mouse assessed as effect on creatinine level at 2 g/Kg, IG measured after 72 hrs; settings: in vivo, po, 2000 mg/kg
[22] = tested on: HT-29; assay: Downregulation of RIPK1 protein level in human HT-29 cells at 6 uM preincubated with Z-VAD-FMK for 2 hrs followed by compound addition and measured after 9 hrs by Western blot analysis; type: functional, cell-based
[23] = Acute toxicity in male C57BL/6J mouse assessed as effect on ALP level at 2 g/Kg, IG measured after 72 hrs; settings: in vivo, po, 2000 mg/kg
[24] = AUC (0 to 24 hrs) in Sprague-Dawley rat at 2 mg/kg, iv measured after 24 hrs by LC-MS/MS analysis; type: ADME, organism-based; settings: in vivo
[25] = tested on: HT-29; assay: Downregulation of RIPK3 protein level in human HT-29 cell supernatant at 6 uM measured after 9 hrs by Western blot analysis; type: functional, cell-based
[26] = tested on: Mus musculus; assay: as §1, with “IL-1beta” for “IL6”, “kidney” for “heart”; type: functional, organism-based; settings: dose 5-10 mg/kg, time 10.0 hrs

Receptor-interacting serine/threonine-protein kinase 3 (Homo sapiens), sequence (Q9Y572 whole entry, looked up): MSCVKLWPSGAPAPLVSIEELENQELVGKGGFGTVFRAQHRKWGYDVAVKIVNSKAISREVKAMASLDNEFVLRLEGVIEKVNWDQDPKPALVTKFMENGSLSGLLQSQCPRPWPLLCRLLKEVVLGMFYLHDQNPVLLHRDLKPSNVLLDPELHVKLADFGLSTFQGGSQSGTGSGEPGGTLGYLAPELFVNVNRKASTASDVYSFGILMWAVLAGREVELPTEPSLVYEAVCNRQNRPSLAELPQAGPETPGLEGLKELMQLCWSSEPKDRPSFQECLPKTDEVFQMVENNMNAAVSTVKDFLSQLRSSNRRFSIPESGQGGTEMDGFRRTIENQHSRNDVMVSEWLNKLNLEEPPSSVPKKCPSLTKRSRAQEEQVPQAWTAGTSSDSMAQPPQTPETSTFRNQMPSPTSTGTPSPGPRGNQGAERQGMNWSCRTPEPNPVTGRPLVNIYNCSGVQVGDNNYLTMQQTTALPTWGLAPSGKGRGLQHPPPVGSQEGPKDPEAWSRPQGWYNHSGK

For Cn1ccc(-c2ccc(NC(=O)[C@]34CCC(C)(C)C[C@H]3[C@H]3C(=O)C=C5[C@@]6(C)C=C(C#N)C(=O)C(C)(C)[C@@H]6CC[C@@]5(C)[C@]3(C)CC4)cc2)n1, the Activity [1] was “Non-toxic”, the Activity [2] was “Non-toxic” and the Activity [3] was 100%. For the same compound, the Activity [4] was “Active”, the inhibition at 10 µM [5] was 100% and the inhibition [6] was “Dose-dependent-effect”. The Activity [7] was “Active”, the Activity [8] was “Active” and the inhibition [9] was “Active”. The Activity [10] was “Non-toxic”, the Tmax [11] was 14 h and the Activity [12] was “Non-toxic”. The Activity [13] was “Active”, the Activity [14] was “Non-toxic” and the inhibition [15] was “Active”. The inhibition [16] was “Active”, the Activity [17] was “Non-toxic” and the inhibition [18] was “Active”. The Activity [19] was “Active; Much Better Activity Observed”, the EC50 [20] was 4.12 µM and the Activity [21] was “Non-toxic”. The Activity [22] was “Active”, the Activity [23] was “Non-toxic” and the AUC(0-t) at 24 h [24] was 4640 ng·h/mL. For the same compound, the Activity [25] was “Active” and the Activity [26] was “Active”.
